Results taken from article PMC9921564, “Novel Indole-Containing Hybrids Derived from Millepachine: Synthesis, Biological Evaluation and Antitumor Mechanism Study” (Molecules, 2023).

What was measured:
[1] = test system: C42B/ENZR (C42b cell line resistant to Enzalutamide); test: CCK-8 cytotoxicity, C42B/ENZR; assay type: cell-based; details: Homo sapiens; 48 h, CCK-8, Enzalutamide-resistant; read-out: IC50, Mean ± SE, C42B/ENZR
Experimental: Besides the high cytotoxicity, drug resistance is the other limiting factor of chemotherapeutics. In this study, the cytotoxicities of compound 14b towards five kinds of drug-resistant cancer cell lines were also evaluated. Except three kinds of cell lines that are resistant to three drugs commonly used in clinical practice, two kinds of cell lines that are resistant to MTAs were also evaluated.
(§1) A549 (non-small-cell-lung cancer cell line), Caski (human epithelial cervical cancer cell line), HepG2 (human liver carcinoma cell line), MCF-7 (human breast carcinoma cell line), C42B (human prostate cancer line C42B), L-02 (human normal hepatocytes), RWPE-1 (human prostate epithelial cells) and MCF-10A (human normal mammary epithelial cells) were obtained from National Collection of Authenticated Cell Cultures (Shanghai, China). […]
(§2) After 24 h, the medium containing different concentrations of tested compounds were added for another 48 h. […] The optical density was recorded with a microplate reader at 570 nm (Thermo Scientific, Varioskan LUX). All the experiments were repeated independently at least three times and the IC50 values were calculated […]
(§3) The fluorescence intensity enhancement (emission wavelength is 410 nm, excitation wavelength is 340 nm) was recorded every 60 s for 60 min in a multifunction microplate reader (Molecular Devices, Flex Station 3). […]

[2] = test system: RWPE-1 (human prostate epithelial cells); test: CCK-8 cytotoxicity, RWPE-1 normal cells; assay type: cell-based
Source text: High cytotoxicity is one of the most limiting factors in chemotherapeutics.
as §1, §2, §3

For COc1ccc(C(=O)c2ccc3c(ccn3C)c2)c2c1C=CC(C)(C)O2 [compound 14b, (5-methoxy-2,2-dimethyl-2H-chromen-8-yl)(1-methyl-1H-indol-5-yl)methanone], the IC50 [1] was 42 ± 11 nM, the IC50 ([2]; Homo sapiens, RWPE-1, 48 h, CCK-8, normal cells, read-out: IC50, Mean ± SE, RWPE-1) was 3698 ± 36 nM and the “Selectivity Ratio” value ([2]; IC50 RWPE-1 / IC50 C42B) was 72.51.
